{
  "source": "patent US8921380B2",
  "about": "“Pyrazolo[1,5-a] pyrimidine compounds as CB1 receptor antagonist” (Mitsubishi Tanabe Pharma Corporation, priority 2006, dated 2014)",
  "data": [
    {"target": "T1, Human CB1 receptor (Homo sapiens, UniProt P21554)", "T1 construct": "host or cells: CHO (hCB1/CHO), membrane fraction", "T1 sequence (P21554 whole entry)": "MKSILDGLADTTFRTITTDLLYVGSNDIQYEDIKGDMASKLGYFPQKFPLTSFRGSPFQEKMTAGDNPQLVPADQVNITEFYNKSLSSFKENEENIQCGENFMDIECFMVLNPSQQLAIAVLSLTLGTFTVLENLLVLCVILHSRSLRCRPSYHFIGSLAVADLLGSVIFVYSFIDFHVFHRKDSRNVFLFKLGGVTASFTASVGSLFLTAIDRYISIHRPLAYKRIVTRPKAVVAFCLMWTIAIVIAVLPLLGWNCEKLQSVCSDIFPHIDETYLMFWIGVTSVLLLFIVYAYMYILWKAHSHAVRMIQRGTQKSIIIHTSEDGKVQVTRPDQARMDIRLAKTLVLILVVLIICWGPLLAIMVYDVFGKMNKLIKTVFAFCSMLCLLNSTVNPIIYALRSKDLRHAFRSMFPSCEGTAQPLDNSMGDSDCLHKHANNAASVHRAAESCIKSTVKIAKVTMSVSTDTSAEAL", "assay": "Human CB1 receptor binding assay ([3H]-CP55940, hCB1/CHO membrane fraction)", "details": "Experiment 1; inhibition of [3H]-CP55940 binding to hCB1/CHO membranes", "protocol": "(§1) [Human CB1 Receptor Binding Assay]\n(§2) (1) Preparation of Human CB1 Receptor (Membrane Fraction):\n(§3) Human CB1-expressing cell line: hCB1/CHO (#ES-110-C, Euroscreen)\n(§4) Buffer A: 50 mM tris-HCl (pH 7.5) containing ethylenediaminetetraacetic acid (2.5 mM), MgCl2 (5 mM) and sucrose (200 mM)\n(§5) Method) The receptor-expressing cells cultivated in the above medium were washed with phosphate buffer (×2 times) and thereto was added Buffer A (2 mL) under ice-cooling or 4° C. (the following procedures were also carried out at the same temperature). The cells were collected by using a cell-scraper, treated by a microtip-type ultrasonicator for 20 seconds (pulse-on: 2 sec, pulse-off: 1 sec) and centrifuged (500×g, 15 min). The supernatant was separated and centrifuged (43000×g, 60 min). The resultant pellet was suspended in Buffer A and homogenized with a potter-type homogenizer. To the homogenate was added an equal volume of 80% glycerol and stored at −80° C.\n(§6) (2) Procedure of CB1 Receptor Binding Assay:\n(§7) Buffer B: 50 mM tris-HCl (pH 7.5) containing ethylenediaminetetraacetic acid (2.5 mM), MgCl2 (5 mM) and bovine serum albumine (2 mg/mL, fatty acid-free, SIGMA-A7030)\n(§8) Buffer C: 50 mM tris-HCl (pH 7.5) containing ethylenediaminetetraacetic acid (2.5 mM), MgCl2 (5 mM) and bovine serum albumine (2 mg/mL, SIGMA-A7906)\n(§9) Coating solution: 0.3% ethyleneimine polymer\n(§10) Radioligand: [^3H]-CP55940 (30 nM, 7992 dpm/μL, PerkinElmer, #NET-1051) prepared by diluting 8.3 μM solution of the radioligand with Buffer B\n(§11) Method) Each well of the assay plate (96-well, Corning Costar Code#3371) was filled with Buffer B (140 μL), a solution of each test compound in dimethylsulfoxide (20 μL, […]), radioligand (20 μL) and membrane preparation (20 μL, 0.5 to 8.0 μg/20 μL) and the mixture was incubated at room temperature for 90 minutes to proceed the binding reaction. The reaction mixture was filtered through Unifilter GF/B (Packard#6005177) presoaked with the above coating solution to collect the membrane fraction. The plate was washed with Buffer C (200 μL×10 times) and dried at 50° C. for 1 hour and Microscinti 40 (40 μL/well) was added to each well. The bound radiolabel was quantitated by a scintilation counter (Top Count NXT, Packard). IC50 value of each test compound against the radioligand-binding to CB1 receptors was calculated on the basis of the quantitated radiolabel activity by using Microsoft Excel 2000 (Microsoft).\n(§12) a) Human CB1 receptor-binding assay: The binding assay was conducted in the same manner as described in Experiment 1.", "units": {"IC50": "nM"}, "values": [
      {"smiles": "CN(NC(=O)c1c(S(N)(=O)=O)nn2c(-c3ccc(Cl)cc3)c(-c3ccccc3Cl)cnc12)c1ccccn1", "note": "[Example B15]", "IC50": "< 10"},
      {"smiles": "CC(NC(=O)c1cnn2c(-c3ccc(Cl)cc3F)c(-c3ccccc3Cl)cnc12)c1ccccn1", "note": "(centres unmarked) [Example A15]", "IC50": "10 to 100"},
      {"smiles": "CC1(NC(=O)c2cnn3c(-c4ccc(Cl)cc4)c(-c4ccccc4Cl)cnc23)CCCCC1", "note": "[Example A10]", "IC50": "10 to 100"},
      {"smiles": "CNC(=O)C1(NC(=O)c2cnn3c(-c4ccc(Cl)cc4)c(-c4ccccc4Cl)cnc23)CCCCC1", "note": "[Example A5, 6-(2-chlorophenyl)-7-(4-chlorophenyl)-3-[N-[1-(N-methylcarbamoyl)cyclohexyl]-carbamoyl]pyrazolo[1,5-a]pyrimidine]", "IC50": "10 to 100"},
      {"smiles": "CNS(=O)(=O)c1nn2c(-c3ccc(Cl)cc3)c(-c3ccccc3Cl)cnc2c1C(=O)N[C@@H]1CCS(=O)(=O)C1", "note": "[Example B6]", "IC50": "10 to 100"},
      {"smiles": "Cc1nn2c(-c3ccc(C(F)(F)F)cc3)c(-c3ccccc3Cl)cnc2c1C(=O)NC1(C#N)CCCCC1", "note": "[Example A13]", "IC50": "10 to 100"},
      {"smiles": "NC(=O)C1(NC(=O)c2c(S(N)(=O)=O)nn3c(-c4ccc(Cl)cc4)c(-c4ccccc4Cl)cnc23)CCCCC1", "note": "[Example B30, 3-[N-(1-carbamoylcyclohexyl)carbamoyl]-6-(2-chlorophenyl)-7-(4-chlorophenyl)-2-sulfamoylpyrazolo[1,5-a]pyrimidine]", "IC50": "10 to 100"},
      {"smiles": "CN(NC(=O)c1c(S(=O)(=O)N(C)C)nn2c(-c3ccc(Cl)cc3)c(-c3ccccc3Cl)cnc12)c1ccccn1", "note": "[Example B12]", "IC50": "10 to 100"},
      {"smiles": "NC(=O)CNS(=O)(=O)c1nn2c(-c3ccc(Cl)cc3)c(-c3ccccc3Cl)cnc2c1C(=O)NC1CCCC1", "note": "[Example B26]", "IC50": "10 to 100"},
      {"smiles": "N#Cc1ccccc1-c1cnc2c(C(=O)NC3CCCC3)c(S(N)(=O)=O)nn2c1-c1ccc(Cl)cc1", "note": "[Example B23]", "IC50": "< 10"},
      {"smiles": "NS(=O)(=O)c1nn2c(-c3ccc(Cl)cc3)c(-c3ccccc3Cl)cnc2c1C(=O)NN1CCCC1", "note": "[Example B14]", "IC50": "< 10"}
    ]},
    {"target": "T1, Human CB1 receptor", "assay": "Human CB1 receptor binding assay ([3H]-CP55940, hCB1/CHO membrane fraction)", "details": "Experiment 2; same method as Experiment 1", "protocol": "as §1, §2, §3, §4, §5, §6, §7, §8, §9, §10, §11, §12", "units": {"IC50": "nM"}, "values": [
      {"smiles": "CC1(NC(=O)c2c(S(N)(=O)=O)nn3c(-c4ccc(Cl)cc4)c(-c4ccccc4Cl)cnc23)CC1", "note": "[Example B74]", "IC50": "< 10"},
      {"smiles": "CN(C)NC(=O)c1c(S(N)(=O)=O)nn2c(-c3ccc(C(F)F)cc3)c(-c3ccccc3Cl)cnc12", "note": "[Example B84]", "IC50": "10 to 100"},
      {"smiles": "N#Cc1ccccc1-c1cnc2c(C(=O)NC3(C(N)=O)CCS(=O)(=O)CC3)cnn2c1-c1ccc(C(F)(F)F)cc1", "note": "[Example A146]", "IC50": "10 to 100"},
      {"smiles": "CC1(NC(=O)c2c(OCCO)nn3c(-c4ccc(Cl)cc4)c(-c4ccccc4Cl)cnc23)CCS(=O)(=O)C1", "note": "(centres unmarked) [Example A140]", "IC50": "< 10"},
      {"smiles": "NC(=O)C1(NC(=O)c2cnn3c(-c4ccc(Cl)cc4)c(-c4ccccc4Cl)cnc23)CCS(=O)(=O)CC1", "note": "[Example A3, 3-[N-(4-carbamoyl-1,1-dioxo-tetrahydrothiopyran-4-yl)carbamoyl]-6-(2-chlorophenyl)-7-(4-chlorophenyl)pyrazolo[1,5-a]pyrimidine]", "IC50": "10 to 100"},
      {"smiles": "CNC(=O)c1nn2c(-c3ccc(C(F)(F)F)cc3)c(-c3ccccc3Cl)cnc2c1C(=O)NC1(C)CCS(=O)(=O)CC1", "note": "[Example B36]", "IC50": "< 10"},
      {"smiles": "CC1(NC(=O)c2c(CO)nn3c(-c4ccc(C(F)(F)F)cc4)c(-c4ccccc4Cl)cnc23)CCS(=O)(=O)CC1", "note": "[Example B32, 6-(2-chlorophenyl)-7-(4-trifluoromethylphenyl)-2-hydroxymethyl-3-[N-(4-methyl-1,1-dioxotetrahydrothiopyran-4-yl)-carbamoyl]pyrazolo[1,5-a]pyrimidine]", "IC50": "< 10"},
      {"smiles": "Cc1nn2c(-c3ccc(Cl)cc3)c(-c3ccccc3Cl)cnc2c1C(=O)NC1(C(N)=O)CCS(=O)(=O)CC1", "note": "[Example A175]", "IC50": "10 to 100"}
    ]},
    {"target": "T2, Human CB2 receptor (Homo sapiens, UniProt P34972)", "T2 construct": "expressed in transfected cells; host or cells: CHO (hCB2/CHO), membrane fraction", "T2 sequence (P34972 whole entry)": "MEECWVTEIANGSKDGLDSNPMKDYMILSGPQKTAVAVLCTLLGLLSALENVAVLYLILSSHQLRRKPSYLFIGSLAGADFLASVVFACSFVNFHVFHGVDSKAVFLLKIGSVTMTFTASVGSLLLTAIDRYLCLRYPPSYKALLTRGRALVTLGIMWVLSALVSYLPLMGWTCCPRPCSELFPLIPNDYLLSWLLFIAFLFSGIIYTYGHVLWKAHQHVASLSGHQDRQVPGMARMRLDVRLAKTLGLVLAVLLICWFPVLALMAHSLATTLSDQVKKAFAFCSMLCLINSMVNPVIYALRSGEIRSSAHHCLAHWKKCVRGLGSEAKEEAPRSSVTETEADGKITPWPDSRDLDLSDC", "assay": "Human CB2 receptor-binding assay (hCB2/CHO) for selectivity to CB1 receptors", "details": "ratio of IC50 value for CB2/IC50 value for CB1", "protocol": "(1) Materials and Methods\nas §12\nb) Human CB2 receptor-binding assay: The binding assay was conducted in the same manner as described in Experiment 1, except that human CB2-expressing CHO cell line (hCB2/CHO) was used instead of hCB1 cell line. IC50 value of each test compound against the radioligand-binding to CB2 receptors was calculated in the manner as described in Experiment 1. Besides, selectivity to CB1 receptors was evaluated in terms of the ratio of IC50 value for CB2/IC50 value for CB1.", "values": [
      {"smiles": "NC(=O)C1(NC(=O)c2cnn3c(-c4ccc(Cl)cc4)c(-c4ccccc4Cl)cnc23)CCS(=O)(=O)CC1", "note": "[Example A3, 3-[N-(4-carbamoyl-1,1-dioxo-tetrahydrothiopyran-4-yl)carbamoyl]-6-(2-chlorophenyl)-7-(4-chlorophenyl)pyrazolo[1,5-a]pyrimidine]", "Selectivity": ">500"}
    ]}
  ]
}
